Usually inhibition stands for the percentage by which the read-out fell short of the control. High values mean a response far below the control, low ones a response near the control.

Data on 15 compounds can be found in US20240425501A1, “NOVEL BICYCLIC HETEROARYL DERIVATIVES AS SOS1:KRAS PROTEINPROTEIN INTERACTION INHIBITORS” (SATYARX PHARMA INNOVATIONS PVT LTD, priority 2021, published 2024).

This test addresses T1, hSOS1 enzyme / KRAS (G12C), GST-Tag, GDP-bound protein (Homo sapiens, UniProt Q07889).
T1 sequence (Q07889 564-1049 limits assumed): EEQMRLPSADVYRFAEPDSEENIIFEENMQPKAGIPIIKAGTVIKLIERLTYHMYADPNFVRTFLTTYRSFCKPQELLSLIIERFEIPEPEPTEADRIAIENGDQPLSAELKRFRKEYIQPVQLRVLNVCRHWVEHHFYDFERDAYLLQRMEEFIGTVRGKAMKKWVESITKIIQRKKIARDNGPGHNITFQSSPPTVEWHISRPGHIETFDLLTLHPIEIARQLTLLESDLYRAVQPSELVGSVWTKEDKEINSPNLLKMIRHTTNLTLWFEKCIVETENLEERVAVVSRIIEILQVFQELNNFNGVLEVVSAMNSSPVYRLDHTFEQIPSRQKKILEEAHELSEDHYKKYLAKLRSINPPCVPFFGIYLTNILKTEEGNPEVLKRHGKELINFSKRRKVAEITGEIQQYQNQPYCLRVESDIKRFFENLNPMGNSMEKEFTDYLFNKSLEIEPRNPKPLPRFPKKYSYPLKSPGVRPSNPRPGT
In words: SOS1-mediated KRAS guanine nucleotide exchange (GEF) assay, HTRF ("On Assay"). Type of test: biochemical. The following applies: 1 μM compound. The essentials: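 Compounds were preincubated 10 min at 25 °C with GDP-loaded GST-KRAS G12C and Tb-anti-GST (working solution 100 nM/2 nM) in HEPES pH 7, 5 mM MgCl2. hSOS1 plus DY-647P-labelled GTP (working solution 20 nM/200 nM) was then added for 10 min. HTRF was read at 665/615 nm with 320 nm excitation, and wells lacking SOS1 served as negative control.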
Background: TR-FRET usually uses a lanthanide donor and a delayed reading to cut background.
Take `C[C@@H](Nc1nc(N2CCOCC2)nc2cnc(N3CCCC3)cc12)c1cc(N)cc(C(F)(F)F)c1` [Example 5, (R)—N-(1-(3-amino-5-(trifluoromethyl)phenyl)ethyl)-2-morpholino-6-(pyrrolidin-1-yl)pyrido[3,4-d]pyrimidin-4-amine]: the inhibition at 1 µM was below 50%.

As for `C[C@@H](Nc1nc(N(C)C)nc2cnc(C3CCOCC3)cc12)c1cc(N)cc(C(F)(F)F)c1` [Example 65, (R)—N4-(1-(3-amino-5-(trifluoromethyl)phenyl)ethyl)-N2,N2-dimethyl-6-(tetrahydro-2H-pyran-4-yl)pyrido[3,4-d]pyrimidine-2,4-diamine], the inhibition at 1 µM is at least 50%.

`C[C@@H](Nc1nc(Cl)nc2cnc(N3CCN(C4CC4)CC3)cc12)c1cc(N)cc(C(F)(F)F)c1` [Example 26, (R)—N-(1-(3-amino-5-(trifluoromethyl)phenyl)ethyl)-2-chloro-6-(4-cyclopropylpiperazin-1-yl)pyrido[3,4-d]pyrimidin-4-amine]: the inhibition at 1 µM is at least 50%.

`CCN1CCN(c2cc3c(N[C@H](C)c4cc(N)cc(C(F)(F)F)c4)nc(Cl)nc3cc2OC)CC1` [Example 72, (R)—N-(1-(3-amino-5-(trifluoromethyl)phenyl)ethyl)-2-chloro-6-(4-ethylpiperazin-1-yl)-7-methoxyquinazolin-4-amine]: the inhibition at 1 µM was at least 50%.

For `C[C@@H](Nc1nc(Cl)nc2cnc(N3CCN(C)CC3)cc12)c1cccc(C(F)F)c1F` [Example 61, (R)-2-chloro-N-(1-(3-(difluoromethyl)-2-fluorophenyl)ethyl)-6-(4-methylpiperazin-1-yl)pyrido[3,4-d]pyrimidin-4-amine], the inhibition at 1 µM is at least 50%.

For `CNCCNc1nc(N[C@H](C)c2cc(N)cc(C(F)(F)F)c2)c2cc(N3CCOCC3)ncc2n1` [Example 35, (R)—N4-(1-(3-amino-5-(trifluoromethyl)phenyl)ethyl)-N2-(2-(methylamino)ethyl)-6-morpholinopyrido[3,4-d]pyrimidine-2,4-diamine], the inhibition at 1 µM was at least 50%.

`COCCNc1nc(N[C@H](C)c2cc(N)cc(C(F)(F)F)c2)c2cc(N3CCOCC3)ncc2n1` [Example 36, (R)—N4-(1-(3-amino-5-(trifluoromethyl)phenyl)ethyl)-N2-(2-methoxyethyl)-6-morpholinopyrido[3,4-d]pyrimidine-2,4-diamine]: the inhibition at 1 µM was at least 50%.

For the compound `C[C@@H](Nc1nc(N2CCC2)nc2cnc(N3CCN(C)CC3)cc12)c1cc(N)cc(C(F)(F)F)c1` [Example 46, (R)—N-(1-(3-amino-5-(trifluoromethyl)phenyl)ethyl)-2-(azetidin-1-yl)-6-(4-methylpiperazin-1-yl)pyrido[3,4-d]pyrimidin-4-amine], the inhibition at 1 µM is at least 50%.

In turn, `C[C@@H](Nc1nc(NCCO)nc2cnc(N3CCCC3)cc12)c1cc(N)cc(C(F)(F)F)c1` [Example 12, (R)-2-((4-((1-(3-amino-5-(trifluoromethyl)phenyl)ethyl)amino)-6-(pyrrolidin-1-yl)pyrido[3,4-d]pyrimidin-2-yl)amino)ethan-1-ol] returned an inhibition at 1 µM of at least 50%.

As to `C[C@@H](Nc1nc(Cl)cc2ncc(N3CCOCC3)cc12)c1cc(N)cc(C(F)(F)F)c1` [Example 89, (R)—N-(1-(3-amino-5-(trifluoromethyl)phenyl)ethyl)-7-chloro-3-morpholino-1,6-naphthyridin-5-amine], the inhibition at 1 µM is at least 50%.

`C[C@@H](Nc1nc(N2CCCC2=O)nc2cnc(N3CCCC3)cc12)c1cc(N)cc(C(F)(F)F)c1` [Example 34, (R)-1-(4-((1-(3-amino-5-(trifluoromethyl)phenyl)ethyl)amino)-6-(pyrrolidin-1-yl)pyrido[3,4-d]pyrimidin-2-yl)pyrrolidin-2-one] returned an inhibition at 1 µM of at least 50%.

The compound `CC1CCN(c2cc3c(N[C@H](C)c4cc(N)cc(C(F)(F)F)c4)nc(Cl)nc3cn2)CC1` [Example 27, (R)—N-(1-(3-amino-5-(trifluoromethyl)phenyl)ethyl)-2-chloro-6-(4-methylpiperidin-1-yl)pyrido[3,4-d]pyrimidin-4-amine] showed an inhibition at 1 µM of at least 50%.

For the compound `CCN1CCN(c2cc3c(N[C@H](C)c4cccc(C(F)F)c4F)nc(Cl)nc3cn2)CC1` [Example 62, (R)-2-chloro-N-(1-(3-(difluoromethyl)-2-fluorophenyl)ethyl)-6-(4-ethylpiperazin-1-yl)pyrido[3,4-d]pyrimidin-4-amine], the inhibition at 1 µM is at least 50%.

The compound `C[C@@H](Nc1nc(N2CCC2)nc2cnc(C3CCN(C)CC3)cc12)c1cc(N)cc(C(F)(F)F)c1` [Example 68, (R)—N-(1-(3-amino-5-(trifluoromethyl)phenyl)ethyl)-2-(azetidin-1-yl)-6-(1-methylpiperidin-4-yl)pyrido[3,4-d]pyrimidin-4-amine] came in with an inhibition at 1 µM of at least 50%.

Take `C[C@@H](Nc1nc(Cl)nc2ncc(N3CCN(C)CC3)cc12)c1cc(N)cc(C(F)(F)F)c1` [Example 82, (R)—N-(1-(3-amino-5-(trifluoromethyl)phenyl)ethyl)-2-chloro-6-(4-methylpiperazin-1-yl)pyrido[2,3-d]pyrimidin-4-amine]: the inhibition at 1 µM was at least 50%.
